# Measurements from ChEMBL document CHEMBL5385976, “Recognition of arylmethylidene derivatives of imidazothiazolotriazinones as novel tubulin polymerization inhibitors” (RSC Med Chem, 2024).
# The source made the active and inactive calls. No cut-off for these calls is given here.
# Experiments:
# [1] = test system: SK-MEL-28; assay: Anticancer activity against human SK-MEL-28 cells assessed as cell growth at 10 umol/L incubated for 48 hrs by SRB assay relative to control; format: functional; details: SK-MEL-28, 48 h, dose 10 µmol/L, read-out: Activity
# [2] = test system: OVCAR-3; assay: Anticancer activity against human OVCAR-3 cells assessed as cell growth at 10 umol/L incubated for 48 hrs by SRB assay relative to control; format: functional; details: OVCAR-3, 48 h, dose 10 µmol/L, read-out: Activity
# [3] = test system: HT-29; assay: Inhibition of cell growth in human HT-29 cells incubated for 72 hrs by MTT assay; format: functional, cell-based; details: HT-29, 72 h
# [4] = test system: K562; assay: Antiproliferative activity against human K562 cells assessed as mean cell growth at 10 uM incubated for 48 hrs by SRB assay relative to control; format: functional
# [5] = test system: Panc02; assay: Inhibition of cell growth in mouse Panc02 cells incubated for 72 hrs by MTT assay; format: functional
# [6] = test system: K562; assay: Inhibition of cell growth in human K562 cells incubated for 72 hrs by MTT assay; format: functional, cell-based
# [7] = test system: Panel NCI-60 (60 carcinoma cell lines); assay: Antiproliferative activity against human panel NCI-60 (60 carcinoma cell lines) assessed as total inhibition of cell growth incubated for 48 hrs by SRB assay; format: functional
# [8] = Inhibition of cell growth in human HaCaT cells incubated for 72 hrs by MTT assay; format: toxicity, cell-based
# [9] = test system: COLO357; assay: Inhibition of cell growth in human COLO357 cells incubated for 72 hrs by MTT assay; format: functional, cell-based
# [10] = biological target: T1, Tubulin (Homo sapiens) (UniProt P68371+Q9H4B7+P0DPH7+P68366+Q13509+Q71U36+P04350+Q3ZCM7+P07437+P68363+Q9BQE3+Q6PEY2+Q13885+Q9BVA1+Q9BUF5); assay: Inhibition of tubulin polymerization in human K562 cells at 0.5 uM incubated for 24 hrs by confocal microscopy; format: cell-based
# [11] = biological target: T1, Tubulin (Homo sapiens); assay: Inhibition of tubulin polymerization in human HT-29 cells upto 100 uM incubated for 48 hrs by Western blot analysis; format: cell-based
# [12] = test system: T47D; assay: Anticancer activity against human T47D cells assessed as cell growth at 10 umol/L incubated for 48 hrs by SRB assay relative to control; format: functional; details: dose 10 µmol/L, read-out: Activity
# [13] = test system: OVCAR-8; assay: Anticancer activity against human OVCAR-8 cells assessed as cell growth at 10 umol/L incubated for 48 hrs by SRB assay relative to control; format: functional; details: OVCAR-8, 48 h, dose 10 µmol/L, read-out: Activity
# [14] = test system: Panel NCI-60 (60 carcinoma cell lines); assay: Antiproliferative activity against human panel NCI-60 (60 carcinoma cell lines) incubated for 48 hrs by SRB assay; format: functional
smiles,measurement,setting,value
CCN1C(=O)N(CC)C2C1NN=c1s/c(=C\c3ccc(Cl)cc3Cl)c(=O)n12 (configuration not stated),growth at 10 µM,[1],45.7%
same,growth at 10 µM,[2],13.4%
same,IC50,[3],5.5 nM
same,Activity,[4],18%
same,GI50,[5],16 nM
same,IC50,"[6]; K562, 72 h",2 nM
same,GI50,"[6]; K562, time 72 hrs",0.64 nM
same,GI,[7],>66.8 µM
same,IC50 at 72 h,[8],3.5 nM
same,IC50,"[9]; COLO357, 72 h",6 nM
same,GI50,"[9]; COLO357, time 72 hrs",16 nM
same,inhibition,[10],Active
same,inhibition,[11],Active
same,growth at 10 µM,[12],58.8%
same,growth at 10 µM,[13],10.8%
same,GI50,[14],80 nM
same,LC50,[14],> 96400 nM
